What all share (assay type): cell-based
The target in test [1] is T1, BRAF V600E (Homo sapiens, UniProt P15056, V600E).
T1 construct: endogenous C-terminal HiBiT fusion tag on BRAF V600E allele; endogenous in cells; host or cells: A375 clone 1F10 (CRISPR-Cas9 knock-in of the HiBiT tag; parental A375 from ATCC)
Kind of test: BRAF HiBiT degradation assay, C-terminal HiBiT-tagged BRAF V600E A375 cells (clone 1F10), Nano-Glo HiBiT Lytic assay. Particulars: for Dmax: A-375. The gist of the method: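 A375 cells (clone 1F10, endogenous C-terminal HiBiT on BRAF V600E) were seeded at 10,000 cells/well, grown 24 h, then dosed in duplicate with an 11-point series from 1 μM to 0.01 nM (0.2% DMSO). Nano-Glo HiBiT lytic luminescence was normalised to DMSO and wildtype-A375 background; DC50 was read at 50% protein remaining, alongside observed Dmax.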
In general terms: The HiBiT peptide binds its large partner to form an active luciferase.

Test [2] deals with T2, BRAF G466V (Homo sapiens, UniProt P15056, G466V).
T2 construct: Horizon Discovery (HCT-116 BRAF−/− cells); host or cells: HCT-116 BRAF−/− cells, clone 8, lentiviral transduction
As to the kind of experiment: BRAF HiBiT degradation assay, C-terminal HiBiT-tagged BRAF G466V overexpressed in HCT-116 BRAF−/− cells (clone 8), Nano-Glo HiBiT Lytic assay. The gist of the method:
(§1)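 HCT-116 BRAF−/− clones stably overexpressing C-terminal HiBiT-tagged mutant BRAF were seeded 24 h before treatment with an 11-point half-log series from 1 μM to 0.01 nM (0.2% DMSO final). Remaining protein was read by HiBiT lytic luminescence, with DMSO and wildtype-cell controls. DC50 was taken as the fitted concentration at 50% remaining protein; observed Dmax is reported relative to DMSO.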

Test [3] addresses T3, BRAF G469A (Homo sapiens, UniProt P15056, G469A).
T3 construct: Horizon Discovery (HCT-116 BRAF−/− cells); host or cells: HCT-116 BRAF−/− cells, clone 34, lentiviral transduction
As to the kind of experiment: BRAF HiBiT degradation assay, C-terminal HiBiT-tagged BRAF G469A overexpressed in HCT-116 BRAF−/− cells (clone 34), Nano-Glo HiBiT Lytic assay. The method, boiled down: as §1

For test [4], the target named is T4, BRAF D594G (Homo sapiens, UniProt P15056, D594G).
T4 construct: Horizon Discovery (HCT-116 BRAF−/− cells); host or cells: HCT-116 BRAF−/− cells, clone 63, lentiviral transduction
Kind of test: BRAF HiBiT degradation assay, C-terminal HiBiT-tagged BRAF D594G overexpressed in HCT-116 BRAF−/− cells (clone 63), Nano-Glo HiBiT Lytic assay. The method, boiled down: as §1

Where [5] appears, read: A375 (BRAF V600E), DC50 at 50%: fitted conc. at Y=50.
Where [6] appears, read: A375 (BRAF V600E), percentage protein degraded at maximal compound effect relative to DMSO.
[7] abbreviates: BRAF G466V, DC50 at 50%: fitted conc. at Y=50.
The mark [8] stands for this setting: HCT-116, BRAF G466V, percentage protein degraded at maximal compound effect relative to DMSO.
The mark [9] stands for this setting: Class 2, BRAF G469A, DC50 at 50%: fitted conc. at Y=50.
[10] abbreviates: HCT-116, Class 2, BRAF G469A, percentage protein degraded at maximal compound effect relative to DMSO.
[11] abbreviates: BRAF D594G, DC50 at 50%: fitted conc. at Y=50.
Setting [12] is: HCT-116, BRAF D594G, percentage protein degraded at maximal compound effect relative to DMSO.
Setting [13] is: A375 (BRAF V600E, Class 1), DC50 at 50% degradation.
[14] abbreviates: A375 (BRAF V600E, Class 1), observed Dmax, % protein degraded relative to DMSO control.
The mark [15] stands for this setting: BRAF G466V (Class 3), HCT-116 BRAF−/− cells, DC50 at 50% degradation.
The mark [16] stands for this setting: BRAF G466V (Class 3), HCT-116 BRAF−/− cells, observed Dmax relative to DMSO control.
Where [17] appears, read: BRAF G469A (Class 2), HCT-116 BRAF−/− cells, DC50 at 50% degradation.
The mark [18] stands for this setting: BRAF G469A (Class 2), HCT-116 BRAF−/− cells, observed Dmax relative to DMSO control.
[19] abbreviates: BRAF D594G (Class 3), HCT-116 BRAF−/− cells, DC50 at 50% degradation.
Setting [20] is: BRAF D594G (Class 3), HCT-116 BRAF−/− cells, observed Dmax relative to DMSO control.

Our source for the DC50 and Dmax values is patent US20260317324A1, “BIFUNCTIONAL COMPOUNDS FOR DEGRADING BRAF VIA UBIQUITIN PROTEOSOME PATHWAY” (Nurix Therapeutics, Inc., priority 2023, published 2026).

T1 sequence (P15056 whole entry V600E, the tested form may be a part): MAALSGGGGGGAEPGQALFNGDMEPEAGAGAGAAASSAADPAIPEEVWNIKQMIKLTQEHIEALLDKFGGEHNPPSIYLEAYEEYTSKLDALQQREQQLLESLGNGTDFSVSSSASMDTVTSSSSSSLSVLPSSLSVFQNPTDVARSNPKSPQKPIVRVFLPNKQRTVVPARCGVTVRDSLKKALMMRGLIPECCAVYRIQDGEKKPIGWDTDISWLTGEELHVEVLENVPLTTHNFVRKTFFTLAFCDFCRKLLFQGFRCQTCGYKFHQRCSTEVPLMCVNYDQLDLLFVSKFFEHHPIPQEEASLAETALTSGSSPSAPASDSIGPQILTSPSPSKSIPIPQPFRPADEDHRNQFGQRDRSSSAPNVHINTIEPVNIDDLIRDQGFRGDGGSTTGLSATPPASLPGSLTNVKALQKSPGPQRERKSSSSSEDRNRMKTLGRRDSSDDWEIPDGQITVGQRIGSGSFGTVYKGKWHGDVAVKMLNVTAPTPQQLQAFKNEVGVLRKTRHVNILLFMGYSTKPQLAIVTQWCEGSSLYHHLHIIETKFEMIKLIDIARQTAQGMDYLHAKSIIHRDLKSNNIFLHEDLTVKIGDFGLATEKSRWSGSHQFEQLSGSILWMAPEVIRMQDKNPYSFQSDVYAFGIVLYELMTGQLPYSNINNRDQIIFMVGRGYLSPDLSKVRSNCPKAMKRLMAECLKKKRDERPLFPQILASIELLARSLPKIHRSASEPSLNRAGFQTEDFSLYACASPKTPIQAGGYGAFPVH
T2 sequence (P15056 whole entry G466V): as the sequence (P15056 whole entry V600E, the tested form may be a part) above, with G466V, E600V counted along it
T4 sequence (P15056 whole entry D594G): as the sequence (P15056 whole entry V600E, the tested form may be a part) above, with D594G, E600V counted along it
T3 sequence (P15056 whole entry G469A): as the sequence (P15056 whole entry V600E, the tested form may be a part) above, with G469A, E600V counted along it

Consider `CCCS(=O)(=O)Nc1cccc(-c2nc(C3CCN(C(=O)C4(C)CCN(C(=O)C5CCN(c6ccc(C7CCC(=O)NC7=O)cn6)CC5)CC4)CC3)sc2-c2ccnc(N)n2)c1F` (racemic) [Compound 197, Rac-N-{3-[5-(2-aminopyrimidin-4-yl)-2-{1-[1-(1-{5-[(3R)-2,6-dioxopiperidin-3-yl]pyridin-2-yl}piperidine-4-carbonyl)-4-methylpiperidine-4-carbonyl]piperidin-4-yl}-1,3-thiazol-4-yl]-2-fluorophenyl}propane-1-sulfonamide], for which the DC50 (commonly the concentration at which degradation of the target reaches its halfway point) in test [1] (setting [5]) was under 10 nM; in test [2] (setting [7]), under 10 nM; in test [3] (setting [9]) it was 10 to 50 nM; in test [4] (setting [11]), under 10 nM. Besides, the Dmax (usually the largest share of the target that was removed) in test [1] (setting [6]) is over 70%; in test [2] (setting [8]) it was 30 to 70%; in test [3] (setting [10]) it was 30 to 70%; in test [4] (setting [12]) it was 30 to 70%.
For `O=C1CC[C@H](c2ccc(N3CCC(CN4CCN(c5cc(F)c(-n6cc(-c7cc(Cl)cc(NS(=O)(=O)N8CCCC8)c7F)c(-c7ccncc7)n6)cc5F)CC4)CC3)cc2)C(=O)N1` [Compound 353, N-{5-chloro-3-[1-(4-{4-[(1-{4-[(3R)-2,6-dioxopiperidin-3-yl]phenyl}piperidin-4-yl)methyl]piperazin-1-yl}-2,5-difluorophenyl)-3-(pyridin-4-yl)-1H-pyrazol-4-yl]-2-fluorophenyl}pyrrolidine-1-sulfonamide], the DC50 in test [1] (setting [13]), in test [2] (setting [15]), in test [3] (setting [17]) and in test [4] (setting [19]) was under 10 nM each time. Besides, the Dmax in test [1] (setting [14]), in test [2] (setting [16]), in test [3] (setting [18]) and in test [4] (setting [20]) was over 70% each time.
Take `CCCS(=O)(=O)Nc1cccc(-c2nc(C(C)(C)C)sc2-c2ccnc(NC3CC4(CCN(CC5CCN(c6ccc7c(=O)n(C8CCC(=O)NC8=O)ccc7c6)CC5)CC4)C3)n2)c1F` (racemic) [Compound 129, Rac-N-(3-{2-tert-butyl-5-[2-({7-[(1-{2-[(3R)-2,6-dioxopiperidin-3-yl]-1-oxo-1,2-dihydroisoquinolin-6-yl}piperidin-4-yl)methyl]-7-azaspiro[3.5]nonan-2-yl}amino)pyrimidin-4-yl]-1,3-thiazol-4-yl}-2-fluorophenyl)propane-1-sulfonamide]: the DC50 in test [1] (setting [5]) was 50 to 500 nM; in test [2] (setting [7]) it was over 500 nM; in test [3] (setting [9]), over 500 nM; in test [4] (setting [11]), over 500 nM. Besides, the Dmax in test [1] (setting [6]) was 30 to 70%; in test [2] (setting [8]), under 30%; in test [3] (setting [10]), under 30%; in test [4] (setting [12]) it was under 30%.
Turning to `CCCS(=O)(=O)Nc1cccc(-c2nc(C(C)(C)C)sc2-c2ccnc(Nc3cnn(C4CCN(CC5CCN(c6ccc(C(=O)N[C@@H]7CCC(=O)NC7=O)nc6)CC5)CC4)c3)n2)c1F` [Compound 67, 5-{4-[(4-{4-[(4-{2-tert-butyl-4-[2-fluoro-3-(propane-1-sulfonamido)phenyl]-1,3-thiazol-5-yl}pyrimidin-2-yl)amino]-1H-pyrazol-1-yl}piperidin-1-yl)methyl]piperidin-1-yl}-N-[(3R)-2,6-dioxopiperidin-3-yl]pyridine-2-carboxamide], the DC50 in test [1] (setting [5]) was under 10 nM; in test [2] (setting [7]) it was over 500 nM; in test [3] (setting [9]), over 500 nM; in test [4] (setting [11]), over 500 nM. The Dmax is 30 to 70% in test [1] (setting [6]), under 30% in test [2] (setting [8]), under 30% in test [3] (setting [10]) and 30 to 70% in test [4] (setting [12]).
Turning to `CCCS(=O)(=O)Nc1cccc(-c2nc(C(C)(C)C)sc2-c2ccnc(Nc3ccc(N4CCN(C(=O)CC5CCN(c6ccc(C7CCC(=O)NC7=O)cn6)CC5)CC4)c(F)c3)n2)c1F` (racemic) [Compound 48, Rac-N-[3-(2-tert-butyl-5-{2-[(4-{4-[2-(1-{5-[(3R)-2,6-dioxopiperidin-3-yl]pyridin-2-yl}piperidin-4-yl)acetyl]piperazin-1-yl}-3-fluorophenyl)amino]pyrimidin-4-yl}-1,3-thiazol-4-yl)-2-fluorophenyl]propane-1-sulfonamide], the 50% degradation concentration (DC50) in test [1] (setting [5]) is under 10 nM; in test [2] (setting [7]) it was over 500 nM; in test [3] (setting [9]), over 500 nM; in test [4] (setting [11]), over 500 nM. Moreover, the Dmax is over 70% in test [1] (setting [6]), under 30% in test [2] (setting [8]), under 30% in test [3] (setting [10]) and 30 to 70% in test [4] (setting [12]).
Regarding `O=C1CCC(c2ccc(N3CCC(CN4CCN(c5ccc(-n6cc(-c7cc(Cl)cc(NS(=O)(=O)N8CC[C@@H](F)C8)c7F)c(-c7ccncc7)n6)c(F)c5)CC4)CC3)nc2)C(=O)N1` (mixture of isomers) [Compound 335, (3R)—N-{5-chloro-3-[1-(4-{4-[(1-{5-[(3RS)-2,6-dioxopiperidin-3-yl]pyridin-2-yl}piperidin-4-yl)methyl]piperazin-1-yl}-2-fluorophenyl)-3-(pyridin-4-yl)-1H-pyrazol-4-yl]-2-fluorophenyl}-3-fluoropyrrolidine-1-sulfonamide], the DC50 in test [1] (setting [13]) was under 10 nM; in test [2] (setting [15]), under 10 nM; in test [3] (setting [17]), 10 to 50 nM; in test [4] (setting [19]), under 10 nM. Also, the Dmax in test [1] (setting [14]), in test [2] (setting [16]), in test [3] (setting [18]) and in test [4] (setting [20]) was over 70% in each case.
Turning to `CCCS(=O)(=O)Nc1cccc(-c2cn(-c3ccc(N4CCN(CC5CCN(c6ccc(C7CCC(=O)NC7=O)c(F)c6)CC5)CC4)cc3)nc2-c2ccncc2)c1F` (racemic) [Compound 19, Rac-N-{3-[1-(4-{4-[(1-{4-[(3R)-2,6-dioxopiperidin-3-yl]-3-fluorophenyl}piperidin-4-yl)methyl]piperazin-1-yl}phenyl)-3-(pyridin-4-yl)-1H-pyrazol-4-yl]-2-fluorophenyl}propane-1-sulfonamide], the DC50 in test [1] (setting [5]) is 10 to 50 nM; in test [2] (setting [7]), 10 to 50 nM; in test [3] (setting [9]), over 500 nM; in test [4] (setting [11]), 10 to 50 nM. The Dmax in test [1] (setting [6]) was over 70%; in test [2] (setting [8]) it was 30 to 70%; in test [3] (setting [10]), 30 to 70%; in test [4] (setting [12]) it was 30 to 70%.
`O=C1CC[C@H](c2ccc(N3CCC(CN4CCN(c5cnc(-n6cc(-c7cc(Cl)cc(NS(=O)(=O)N8CCCC8)c7F)c(-c7ccncc7)n6)nc5)CC4)CC3)cc2)C(=O)N1` [Compound 360, N-{5-chloro-3-[1-(5-{4-[(1-{4-[(3R)-2,6-dioxopiperidin-3-yl]phenyl}piperidin-4-yl)methyl]piperazin-1-yl}pyrimidin-2-yl)-3-(pyridin-4-yl)-1H-pyrazol-4-yl]-2-fluorophenyl}pyrrolidine-1-sulfonamide]: the DC50 in test [1] (setting [13]), in test [2] (setting [15]), in test [3] (setting [17]) and in test [4] (setting [19]) was under 10 nM throughout. For the same compound, the Dmax was over 70% in test [1] (setting [14]), over 70% in test [2] (setting [16]), 30 to 70% in test [3] (setting [18]) and over 70% in test [4] (setting [20]).
Turning to `CCCS(=O)(=O)Nc1cccc(-c2nc(C3CCN(C(=O)CN4CCC5(CC4)CN(c4ccc6c(c4)C(=O)N(C4CCC(=O)NC4=O)C6=O)C5)CC3)sc2-c2ccnc(NC)n2)c1F` (racemic) [Compound 219, Rac-N-[3-(2-{1-[2-(2-{2-[(3R)-2,6-dioxopiperidin-3-yl]-1,3-dioxo-2,3-dihydro-1H-isoindol-5-yl}-2,7-diazaspiro[3.5]nonan-7-yl)acetyl]piperidin-4-yl}-5-[2-(methylamino)pyrimidin-4-yl]-1,3-thiazol-4-yl)-2-fluorophenyl]propane-1-sulfonamide], the DC50 in test [1] (setting [5]) was under 10 nM; in test [2] (setting [7]) it was under 10 nM; in test [3] (setting [9]) it was over 500 nM; in test [4] (setting [11]), over 500 nM. For the same compound, the Dmax in test [1] (setting [6]) is over 70%; in test [2] (setting [8]) it was 30 to 70%; in test [3] (setting [10]), 30 to 70%; in test [4] (setting [12]), 30 to 70%.
